Experiments:
Format in all cases: in vivo
[1] = tested on: Diabrotica balteata (Corn Root Worm); assay: Diabrotica balteata (corn root worm), sprayed maize sprouts; conditions: 96 h, application rate of 200 ppm, L2 larvae on maize sprouts, 4 days after infestation
Method: Example B2: Diabrotica balteata (Corn Root Worm)
Maize sprouts, placed on an agar layer in 24-well microtiter plates were treated with aqueous test solutions prepared from 10′000 ppm DMSO stock solutions by spraying. After drying, the plates were infested with L2 larvae (6 to 10 per well). The samples were assessed for mortality and growth inhibition in comparison to untreated samples 4 days after infestation.

[2] = tested on: Spodoptera littoralis (Egyqptian Cotton Leaf Worm); assay: Spodoptera littoralis (Egyptian cotton leaf worm), sprayed cotton leaf discs; conditions: foliar, 72 h, application rate of 200 ppm, L1 larvae on cotton leaf discs, 3 days after infestation
Method: Example B7: Spodoptera littoralis (Egyqptian Cotton Leaf Worm)
Cotton leaf discs were placed on agar in 24-well microtiter plates and sprayed with aqueous test solutions prepared from 10′000 ppm DMSO stock solutions. After drying the leaf discs were infested with five L1 larvae. The samples were assessed for mortality, anti-feedant effect, and growth inhibition in comparison to untreated samples 3 days after infestation. Control of Spodoptera littoralis by a test sample is when at least one of mortality, anti-feedant effect, and growth inhibition is higher than the untreated sample.

[3] = tested on: Myzus persicae (Green Peach Aphid); assay: Myzus persicae (green peach aphid), sprayed sunflower leaf discs; conditions: foliar, 144 h, application rate of 200 ppm, mixed ages on sunflower leaf discs, 6 days after infestation
Method: Example B4: Myzus persicae (Green Peach Aphid)
Sunflower leaf discs were placed on agar in a 24-well microtiter plate and sprayed with aqueous test solutions prepared from 10′000 ppm DMSO stock solutions. After drying, the leaf discs were infested with an aphid population of mixed ages. The samples were assessed for mortality 6 days after infestation.

[4] = tested on: Plutella xylostella (Diamond Back Moth); assay: Plutella xylostella (diamond back moth), treated artificial diet; conditions: 120 h, application rate of 200 ppm, L2 larvae on artificial diet, 5 days after infestation, read-out: effect in at least one of the two categories (mortality or growth inhibition)
Method: Example B6: Plutella xylostella (Diamond Back Moth)
24-well microtiter plates with artificial diet were treated with aqueous test solutions prepared from 10′000 ppm DMSO stock solutions by pipetting. After drying, the plates were infested with L2 larvae (10 to 15 per well). The samples were assessed for mortality and growth inhibition in comparison to untreated samples 5 days after infestation.
The following compounds gave an effect of at least 80% in at least one of the two categories (mortality or growth inhibition) at an application rate of 200 ppm: […]

[5] = tested on: Euschistus heros (Neotropical Brown Stink Bug); assay: Euschistus heros (neotropical brown stink bug), sprayed soybean leaf; conditions: 120 h, application rate of 200 ppm, N-2 nymphs on soybean leaf, 5 days after infestation
Method: Example B3: Euschistus heros (Neotropical Brown Stink Bug)
Soybean leaf on agar in 24-well microtiter plates were sprayed with aqueous test solutions prepared from 10′000 ppm DMSO stock solutions. After drying the leaf were infested with N-2 nymphs. The samples were assessed for mortality in comparison to untreated samples 5 days after infestation.

CCS(=O)(=O)c1cc(-c2ccc(OC)nc2)cnc1-c1nc2cc(C(F)(F)F)ncc2n1C [Compound P1, 2-[3-ethylsulfonyl-5-(6-methoxy-3-pyridyl)-2-pyridyl]-3-methyl-6-(trifluoromethyl)imidazo[4,5-c]pyridine]
≥ 80%: mortality at 200 ppm [1] | percent control (mortality, anti-feedant effect or growth inhibition) at 200 ppm [2] | mortality at 200 ppm [3] | percent effect (mortality or growth inhibition) at 200 ppm [4]

CCS(=O)(=O)c1cc(-c2cnc(Cl)c(C)c2)cnc1-c1nc2cc(C(F)(F)F)ncc2n1C [Compound P4]
≥ 80%: percent control (mortality, anti-feedant effect or growth inhibition) at 200 ppm [2] | mortality at 200 ppm [5] | mortality at 200 ppm [3] | percent effect (mortality or growth inhibition) at 200 ppm [4]

CCS(=O)(=O)c1cc(-c2cncc3ccccc23)cnc1-c1nc2cc(C(F)(F)F)ncc2n1C [Compound P7]
≥ 80%: mortality at 200 ppm [1] | percent control (mortality, anti-feedant effect or growth inhibition) at 200 ppm [2] | percent effect (mortality or growth inhibition) at 200 ppm [4]

CCS(=O)(=O)c1cc(-c2ccc(-c3ccc(F)cc3)nc2)cnc1-c1nc2cc(C(F)(F)F)ncc2n1C [Compound P12]
≥ 80%: mortality at 200 ppm [1] | percent control (mortality, anti-feedant effect or growth inhibition) at 200 ppm [2] | mortality at 200 ppm [5] | mortality at 200 ppm [3] | percent effect (mortality or growth inhibition) at 200 ppm [4]

CCSc1cc(-n2nc(C)cc2C)cnc1-c1nc2cc(C(F)(F)F)ncc2n1C [Compound P13]
≥ 80%: mortality at 200 ppm [1]

CCSc1cc(-n2cc(Cl)cn2)cnc1-c1nc2cc(C(F)(F)F)ncc2n1C [Compound P14, 2-[5-(4-chloropyrazol-1-yl)-3-ethylsulfanyl-2-pyridyl]-3-methyl-6-(trifluoromethyl)imidazo[4,5-c]pyridine]
≥ 80%: mortality at 200 ppm [1] | percent control (mortality, anti-feedant effect or growth inhibition) at 200 ppm [2] | percent effect (mortality or growth inhibition) at 200 ppm [4]

CCS(=O)(=O)c1cc(-n2nc(C)cc2C)cnc1-c1nc2cc(C(F)(F)F)ncc2n1C [Compound P15]
≥ 80%: mortality at 200 ppm [1] | percent control (mortality, anti-feedant effect or growth inhibition) at 200 ppm [2] | mortality at 200 ppm [5] | mortality at 200 ppm [3] | percent effect (mortality or growth inhibition) at 200 ppm [4]

CCS(=O)(=O)c1cc(-c2nc(C)cc(C3CC3)n2)cnc1-c1nc2cc(C(F)(F)F)ncc2n1C [Compound P23, 2-[5-(4-cyclopropyl-6-methyl-pyrimidin-2-yl)-3-ethylsulfonyl-2-pyridyl]-3-methyl-6-(trifluoromethyl)imidazo[4,5-c]pyridine]
≥ 80%: mortality at 200 ppm [1] | percent control (mortality, anti-feedant effect or growth inhibition) at 200 ppm [2] | mortality at 200 ppm [5] | mortality at 200 ppm [3] | percent effect (mortality or growth inhibition) at 200 ppm [4]

CCS(=O)(=O)c1cc(-n2ncc3ccccc32)cnc1-c1nc2cc(C(F)(F)F)ncc2n1C [Compound P24]
≥ 80%: percent control (mortality, anti-feedant effect or growth inhibition) at 200 ppm [2] | percent effect (mortality or growth inhibition) at 200 ppm [4]

CCS(=O)(=O)c1cc(-n2nc(C(F)(F)F)cc2-c2ccc(F)cc2)cnc1-c1nc2cc(C(F)(F)F)ncc2n1C [Compound P28]
≥ 80%: mortality at 200 ppm [1] | percent control (mortality, anti-feedant effect or growth inhibition) at 200 ppm [2] | percent effect (mortality or growth inhibition) at 200 ppm [4]

CCS(=O)(=O)c1cc(-n2ncc3cnc(C(F)(F)F)cc32)cnc1-c1nc2cc(C(F)(F)F)ncc2n1C [Compound P29]
≥ 80%: mortality at 200 ppm [1] | percent control (mortality, anti-feedant effect or growth inhibition) at 200 ppm [2] | percent effect (mortality or growth inhibition) at 200 ppm [4]

CCS(=O)(=O)c1cc(-c2c(C(F)(F)F)n[nH]c2C)cnc1-c1nc2cc(C(F)(F)F)ncc2n1C [Compound P30]
≥ 80%: mortality at 200 ppm [1] | mortality at 200 ppm [5] | mortality at 200 ppm [3]

CCS(=O)(=O)c1cc(-c2cnc3nc(C(F)(F)F)cnn23)cnc1-c1nc2cc(C(F)(F)F)ncc2n1C [Compound P38]
≥ 80%: mortality at 200 ppm [1] | percent control (mortality, anti-feedant effect or growth inhibition) at 200 ppm [2] | mortality at 200 ppm [5] | percent effect (mortality or growth inhibition) at 200 ppm [4]

CCS(=O)(=O)c1cc(-c2ccc3nccn3c2C)cnc1-c1nc2cc(C(F)(F)F)ncc2n1C [Compound P42]
≥ 80%: mortality at 200 ppm [5] | mortality at 200 ppm [3]

CCS(=O)(=O)c1cc(-c2sccc2C)cnc1-c1nc2cc(C(F)(F)F)ncc2n1C [Compound P48]
≥ 80%: mortality at 200 ppm [1] | percent control (mortality, anti-feedant effect or growth inhibition) at 200 ppm [2] | percent effect (mortality or growth inhibition) at 200 ppm [4]

CCS(=O)(=O)c1cc(-c2cnc3ccccn23)cnc1-c1nc2cc(C(F)(F)F)ncc2n1C [Compound P51]
≥ 80%: percent control (mortality, anti-feedant effect or growth inhibition) at 200 ppm [2] | mortality at 200 ppm [5] | mortality at 200 ppm [3] | percent effect (mortality or growth inhibition) at 200 ppm [4]

CCS(=O)(=O)c1cc(-c2ccc3ccccc3n2)cnc1-c1nc2cc(C(F)(F)F)ncc2n1C [Compound P62]
≥ 80%: mortality at 200 ppm [5] | mortality at 200 ppm [3] | percent effect (mortality or growth inhibition) at 200 ppm [4]

CCS(=O)(=O)c1cc(-c2ncc(N)nc2C)cnc1-c1nc2cc(C(F)(F)F)ncc2n1C [Compound P63]
≥ 80%: percent control (mortality, anti-feedant effect or growth inhibition) at 200 ppm [2] | mortality at 200 ppm [5] | mortality at 200 ppm [3] | percent effect (mortality or growth inhibition) at 200 ppm [4]

CCS(=O)(=O)c1cc(-c2ccsc2C)cnc1-c1nc2cc(C(F)(F)F)ncc2n1C [Compound P68]
≥ 80%: percent control (mortality, anti-feedant effect or growth inhibition) at 200 ppm [2] | mortality at 200 ppm [5]

CCS(=O)(=O)c1cc(-c2ccc(C)s2)cnc1-c1nc2cc(C(F)(F)F)ncc2n1C [Compound P69]
≥ 80%: percent control (mortality, anti-feedant effect or growth inhibition) at 200 ppm [2] | mortality at 200 ppm [5] | mortality at 200 ppm [3] | percent effect (mortality or growth inhibition) at 200 ppm [4]

CCS(=O)(=O)c1cc(-c2ccncc2C#N)cnc1-c1nc2cc(C(F)(F)F)ncc2n1C [Compound P73]
≥ 80%: mortality at 200 ppm [1] | mortality at 200 ppm [5] | mortality at 200 ppm [3] | percent effect (mortality or growth inhibition) at 200 ppm [4]

CCS(=O)(=O)c1cc(-c2ccc(SC)nc2)cnc1-c1nc2cc(C(F)(F)F)ncc2n1C [Compound P75]
≥ 80%: mortality at 200 ppm [1] | mortality at 200 ppm [5] | mortality at 200 ppm [3] | percent effect (mortality or growth inhibition) at 200 ppm [4]

CCS(=O)(=O)c1cc(-c2ccc3[nH]c(=O)[nH]c3c2)cnc1-c1nc2cc(C(F)(F)F)ncc2n1C [Compound P76]
≥ 80%: mortality at 200 ppm [1]

CCS(=O)(=O)c1cc(-c2cc(C)oc2C#N)cnc1-c1nc2cc(C(F)(F)F)ncc2n1C [Compound P78]
≥ 80%: mortality at 200 ppm [1] | mortality at 200 ppm [3]

CCS(=O)(=O)c1cc(-c2cnc(O)nc2O)cnc1-c1nc2cc(C(F)(F)F)ncc2n1C [Compound P79]
≥ 80%: percent effect (mortality or growth inhibition) at 200 ppm [4]

CCS(=O)(=O)c1cc(-c2ncc(OC)cn2)cnc1-c1nc2cc(C(F)(F)F)ncc2n1C [Compound P97]
≥ 80%: percent control (mortality, anti-feedant effect or growth inhibition) at 200 ppm [2] | mortality at 200 ppm [5] | mortality at 200 ppm [3] | percent effect (mortality or growth inhibition) at 200 ppm [4]

CCS(=O)(=O)c1cc(-c2ccnc(C#N)c2)cnc1-c1nc2cc(C(F)(F)F)ncc2n1C [Compound P99]
≥ 80%: mortality at 200 ppm [1] | mortality at 200 ppm [5] | percent effect (mortality or growth inhibition) at 200 ppm [4]

CCS(=O)(=O)c1cc(-c2ccnc(C#N)n2)cnc1-c1nc2cc(C(F)(F)F)ncc2n1C [Compound P107]
≥ 80%: mortality at 200 ppm [1] | percent control (mortality, anti-feedant effect or growth inhibition) at 200 ppm [2] | percent effect (mortality or growth inhibition) at 200 ppm [4]
